Laboratory results as given in patent publication US20260224571A1, “AZACYCLOALKANE COMPOUND AND PHARMACEUTICAL COMPOSITION, AND USE THEREOF” (Prime Gene Therapeutics Co., Ltd., priority 2023, published 2026).
Where a name gives a salt, the structure may show the parent alone.

Experiments:
[1] = biological target: ROCK1 (Homo sapiens, UniProt Q13464); test: ROCK1 kinase enzymatic activity (HTRF, STK2 substrate); type: biochemical; conditions: ROCK1 kinase reacted at room temperature for 20 minutes
ROCK1, sequence (Q13464 whole entry): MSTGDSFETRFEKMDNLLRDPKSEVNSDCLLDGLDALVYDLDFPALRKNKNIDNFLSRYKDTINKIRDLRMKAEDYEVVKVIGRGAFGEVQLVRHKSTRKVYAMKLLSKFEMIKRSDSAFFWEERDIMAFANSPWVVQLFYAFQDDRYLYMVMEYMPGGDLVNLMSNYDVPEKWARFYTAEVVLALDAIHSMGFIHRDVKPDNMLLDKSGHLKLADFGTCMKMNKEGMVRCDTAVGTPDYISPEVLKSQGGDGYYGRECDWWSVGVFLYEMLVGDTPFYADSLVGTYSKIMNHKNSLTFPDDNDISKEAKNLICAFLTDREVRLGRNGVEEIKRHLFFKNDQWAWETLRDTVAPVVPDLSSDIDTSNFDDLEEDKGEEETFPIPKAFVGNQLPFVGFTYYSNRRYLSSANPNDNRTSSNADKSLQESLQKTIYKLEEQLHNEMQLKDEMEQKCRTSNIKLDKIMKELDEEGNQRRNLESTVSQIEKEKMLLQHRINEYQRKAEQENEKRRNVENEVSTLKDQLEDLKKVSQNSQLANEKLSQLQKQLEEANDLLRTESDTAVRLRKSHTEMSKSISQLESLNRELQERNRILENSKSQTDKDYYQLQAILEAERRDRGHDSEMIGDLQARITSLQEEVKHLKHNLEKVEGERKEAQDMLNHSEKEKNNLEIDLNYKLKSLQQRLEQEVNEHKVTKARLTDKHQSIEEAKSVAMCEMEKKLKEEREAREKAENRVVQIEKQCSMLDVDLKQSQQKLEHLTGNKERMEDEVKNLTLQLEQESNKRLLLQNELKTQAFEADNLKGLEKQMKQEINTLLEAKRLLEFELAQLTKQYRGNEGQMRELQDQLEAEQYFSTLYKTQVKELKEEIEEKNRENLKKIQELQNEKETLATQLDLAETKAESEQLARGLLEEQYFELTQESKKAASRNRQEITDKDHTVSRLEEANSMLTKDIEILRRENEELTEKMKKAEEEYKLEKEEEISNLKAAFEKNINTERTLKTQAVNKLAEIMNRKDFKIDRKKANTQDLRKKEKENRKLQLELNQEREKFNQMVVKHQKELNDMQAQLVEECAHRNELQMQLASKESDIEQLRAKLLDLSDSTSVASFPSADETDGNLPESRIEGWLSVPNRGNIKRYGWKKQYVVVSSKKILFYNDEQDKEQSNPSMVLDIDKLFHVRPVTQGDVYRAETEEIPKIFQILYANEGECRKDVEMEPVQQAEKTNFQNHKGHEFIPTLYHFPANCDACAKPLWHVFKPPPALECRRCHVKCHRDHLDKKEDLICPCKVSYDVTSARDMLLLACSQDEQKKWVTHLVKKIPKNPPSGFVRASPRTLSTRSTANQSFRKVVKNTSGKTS
From the text: (§1) The kinase activity data was expressed by comparing the kinase activity of the test compound and that of the blank group (containing only DMSO), and the IC50 value was obtained by curve fitting using Prism software (GraphPad7.0).

[2] = system: phosphorylation of myosin light chain T18/S19; test: In Cell Western for phosphorylation of myosin light chain in A7r5 cells; type: cell-based; conditions: rat smooth muscle cell line A7r5, 1 hour with compound, phospho-MLC-T18/S19; read-out: cellular activity IC50
From the text: The rat smooth muscle cell line A7r5 was used, and the A7r5 cell culture conditions were DMEM containing 10% FBS. Phspho-MLC-T18/S19 specific antibody and a second detection antibody were used to detect the phosphorylation level of myosin light chain by In Cell Western. Cells treated with positive compounds were used as positive controls, while the group without compounds but with compound solvents was used as negative controls. DRAQ5 stained cell nuclei were used as internal references. GraphPad Prism 7.0 software was used, and fitting was carried out by using a non-linear regression curve with varying slopes to determine the absolute IC50 value.
On the first day, A7r5 cells were resuspended in serum-free medium and seeded into 384 wells of PDL coated transparent black plates at a density of 5000 cells per well. Serum starvation culture was performed for 4 hours, and the cells were incubated with the compound in serum-free medium for 1 hour. 50 μL of 8% PFA (polyformaldehyde) was added to each well and fixed at room temperature for 1 hour. The liquid in the wells was discard and 90 μL of ice methanol was added to each well to permeabilize the cells at 4° C. for 1 hour. Then, PBST (0.1% Tween20-PBS) was added using an automatic separator to wash three times. After patting the plate for drying, 50 μL blocking solution was added to each well for sealing at room temperature for 1 hour. The phspho-MLC-T18/S19 specific antibody was diluted with the blocking solution at a ratio of 1:200. After adding 20 μL to each well, incubation was carried out overnight at 4° C. with a sealed film.
On the second day, the liquid in the wells was discarded and PBST was added using an automatic separator to wash the plate 5 times. After patting the plate for drying, the second detection antibody was diluted with blocking solution at a ratio of 1:800 and DRAQ5 at a ratio of 1:1000. After adding 20 μL to each well, incubation was carried out at room temperature for 1 hour. Then, the liquid in the wells was discarded and PBST was added using an automatic separator to wash the plate 3 times, followed by adding ddH2O to wash the plate 3 times. After patting the plate for drying, it was scanned using a LICOR Odyssey near-infrared imaging scanner.

[3] = biological target: ROCK2 (Homo sapiens, UniProt O75116); test: ROCK2 kinase enzymatic activity (HTRF, STK2 substrate); type: biochemical; conditions: ROCK2 kinase reacted at room temperature for 30 minutes
ROCK2, sequence (O75116 whole entry): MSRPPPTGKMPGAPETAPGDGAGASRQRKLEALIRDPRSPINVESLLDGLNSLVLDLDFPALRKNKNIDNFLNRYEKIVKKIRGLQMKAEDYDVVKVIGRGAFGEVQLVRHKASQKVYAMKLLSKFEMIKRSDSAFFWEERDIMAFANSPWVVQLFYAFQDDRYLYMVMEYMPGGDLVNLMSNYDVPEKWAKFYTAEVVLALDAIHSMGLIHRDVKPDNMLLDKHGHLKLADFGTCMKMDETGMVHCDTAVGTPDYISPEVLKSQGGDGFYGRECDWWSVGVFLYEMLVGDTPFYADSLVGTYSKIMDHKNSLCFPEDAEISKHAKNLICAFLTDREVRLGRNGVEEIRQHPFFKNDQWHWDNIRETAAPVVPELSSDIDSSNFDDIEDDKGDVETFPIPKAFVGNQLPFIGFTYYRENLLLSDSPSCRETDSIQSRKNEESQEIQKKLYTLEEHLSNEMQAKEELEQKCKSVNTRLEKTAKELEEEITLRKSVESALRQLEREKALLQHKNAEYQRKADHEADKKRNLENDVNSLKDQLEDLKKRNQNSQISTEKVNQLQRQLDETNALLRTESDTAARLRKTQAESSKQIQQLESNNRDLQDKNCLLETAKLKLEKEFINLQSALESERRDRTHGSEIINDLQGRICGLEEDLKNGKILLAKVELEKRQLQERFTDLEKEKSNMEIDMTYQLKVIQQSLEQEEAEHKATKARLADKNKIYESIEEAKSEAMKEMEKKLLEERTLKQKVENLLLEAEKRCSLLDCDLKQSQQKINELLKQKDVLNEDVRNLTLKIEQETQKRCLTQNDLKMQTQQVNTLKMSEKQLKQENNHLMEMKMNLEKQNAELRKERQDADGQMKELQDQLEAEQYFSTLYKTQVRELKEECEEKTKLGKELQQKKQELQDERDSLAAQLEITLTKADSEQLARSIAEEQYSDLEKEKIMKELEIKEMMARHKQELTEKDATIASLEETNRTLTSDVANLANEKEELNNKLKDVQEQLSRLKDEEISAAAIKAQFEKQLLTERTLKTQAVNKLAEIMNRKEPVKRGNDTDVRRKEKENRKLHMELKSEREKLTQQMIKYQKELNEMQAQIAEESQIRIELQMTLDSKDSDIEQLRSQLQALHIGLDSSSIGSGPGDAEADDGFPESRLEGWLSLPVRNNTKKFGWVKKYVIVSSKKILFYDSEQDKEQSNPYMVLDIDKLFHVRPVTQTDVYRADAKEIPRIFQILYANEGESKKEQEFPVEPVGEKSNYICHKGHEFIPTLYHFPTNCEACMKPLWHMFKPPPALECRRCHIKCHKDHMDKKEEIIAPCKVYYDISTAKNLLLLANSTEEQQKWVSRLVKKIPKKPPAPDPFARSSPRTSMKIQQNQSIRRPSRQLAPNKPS
From the text: as §1

| Structure (SMILES) | IC50 [1] [nM] | IC50 [2] [nM] | IC50 [3] [nM] |
| --- | --- | --- | --- |
| CCNc1nn(C2(CC#N)CN(S(=O)(=O)C(F)(F)F)C2)cc1-c1ncnc2[nH]ccc12 [Example 6, 2-(3-(3-(ethylamino)-4-(7H-pyrrolo[2,3-d]pyrimidin-4-yl)-1H-pyrazol-1-yl)-1-((trifluoromethyl)sulfonyl)azetidine-3-yl)acetonitrile] | < 5 | 181 | < 5 |
| CN(C)CCNc1nn(C2(CC#N)CN(S(=O)(=O)C(F)(F)F)C2)cc1-c1ncnc2[nH]ccc12 [Example 7, 2-(3-(3-((2-(dimethylamino)ethyl)amino)-4-(7H-pyrrolo[2,3-d]pyrimidin-4-yl)-1H-pyrazol-1-yl)-1-((trifluoromethyl)sulfonyl)azetidine-3-yl)acetonitrile] | < 5 | 132 | < 5 |
| Cc1ccc(C(=O)OCc2ccc([C@@H](CN)C(=O)Nc3ccc4cnccc4c3)cc2)c(C)c1 [Netarsudil, reference compound] | – | 288 | – |
| CCS(=O)(=O)N1CC(CC#N)(n2cc(-c3cc(-c4cnn(C)c4)nc4ccnn34)c(N)n2)C1 [Example 82] | > 100 | > 10000 | > 100 |
| CNC(=O)c1nn(C2(CC#N)CN(S(=O)(=O)CC(F)(F)F)C2)cc1-c1ncnc2[nH]ccc12 [Example 62, 1-(3-(cyanomethyl)-1-((2,2,2-trifluoroethyl)sulfonyl)azetidine-3-yl)-N-methyl-4-(7H-pyrrolo[2,3-d]pyrimidin-4-yl)-1H-pyrazol-3-formamide] | > 100 | > 10000 | > 100 |
| CC(=O)Nc1nn(C2(CC#N)CN(S(=O)(=O)C(F)(F)F)C2)cc1-c1ncnc2[nH]ccc12 [Example 5] | < 5 | 951 | < 5 |
| Cn1cc(Nc2cc(-c3cn(C4(CC#N)CN(S(C)(=O)=O)C4)nc3N)ncn2)cn1 [Example 69] | > 100 | > 10000 | > 100 |
| N#CCC1(n2cc(-c3ncnc4[nH]ccc34)c(O)n2)CN(C(=O)NCC(F)(F)F)C1 [Example 55, 3-(cyanomethyl)-3-(3-hydroxyl-4-(7H-pyrrolo[2,3-d]pyrimidin-4-yl)-1H-pyrazol-1-yl)-N-(2,2,2-trifluoroethyl)azetidine-1-formamide] | < 50 | > 10000 | > 100 |
| COc1nsc(NC(=O)N2CC(CC#N)(n3cc(-c4ncnc5[nH]ccc45)c(N)n3)C2)n1 [Example 19, 3-(3-amino-4-(7H-pyrrolo[2,3-d]pyrimidin-4-yl)-1H-pyrazol-1-yl)-3-(cyanomethyl)-N-(3-methoxy-1,2,4-thiadiazol-5-yl)azetidine-1-formamide] | < 10 | > 10000 | < 10 |
| N#CCC1(n2cc(-c3ncnc4[nH]ccc34)c(C(N)=O)n2)CN(C(=O)NCC(F)(F)F)C1 [Example 61, 1-(3-(cyanomethyl)-1-((2,2,2-trifluoroethyl)carbamoyl)azetidine-3-yl)-4-(7H-pyrrolo[2,3-d]pyrimidin-4-yl)-1H-pyrazol-3-formamide] | > 100 | > 10000 | > 100 |

More lines, now with the values ahead:

| IC50 [1] [nM] | IC50 [2] [nM] | IC50 [3] [nM] | Structure (SMILES) |
| --- | --- | --- | --- |
| < 5 | 178 | < 5 | CS(=O)(=O)N1CCC(CC#N)(n2cc(-c3ncnc4[nH]ccc34)c(N)n2)C1 (stereo not shown) [Example 3, 2-(3-(3-amino-4-(7H-pyrrolo[2,3-d]pyrimidin-4-yl)-1H-pyrazol-1-yl)-1-(methylsulfonyl)pyrrolidin-3-yl)acetonitrile] |
| < 10 | 91 | < 10 | CCNS(=O)(=O)N1CC(CC#N)(n2cc(-c3ncnc4[nH]ccc34)c(N)n2)C1 [Example 41, 3-(3-amino-4-(7H-pyrrolo[2,3-d]pyrimidin-4-yl)-1H-pyrazol-1-yl)-3-(cyanomethyl)-N-ethylazetidine-1-sulfonamide] |
| < 5 | 3130 | < 5 | CCS(=N)(=O)N1CC(CC#N)(n2cc(-c3ncnc4[nH]ccc34)c(N)n2)C1 (stereo not shown) [Example 38, 2-(3-(3-amino-4-(7H-pyrrolo[2,3-d]pyrimidin-4-yl)-1H-pyrazol-1-yl)-1-(ethylsulfonylimino)azetidine-3-yl)acetonitrile] |
| < 5 | 678 | < 5 | C[C@H](N)CS(=O)(=O)N1CC(CC#N)(n2cc(-c3ncnc4[nH]ccc34)c(N)n2)C1 [Example 87, (S)-2-(3-(3-amino-4-(7H-pyrrolo[2,3-d]pyrimidin-4-yl)-1H-pyrazol-1-yl)-1-((2-aminopropyl)sulfonyl)azetidine-3-yl)acetonitrile trifluoroacetate salt] |
| < 10 | 551 | < 10 | N#CCC1(n2cc(-c3ncnc4[nH]ccc34)c(N)n2)CN(C(=O)[C@@H]2CC2(F)F)C1 [Example 34, (S)-2-(3-(3-amino-4-(7H-pyrrolo[2,3-d]pyrimidin-4-yl)-1H-pyrazol-1-yl)-1-(2,2-difluorocyclopropane-1-carbonyl)azetidine-3-yl)acetonitrile] |
| < 10 | 1570 | < 10 | N#CCC1(n2cc(-c3ncnc4[nH]ccc34)c(N)n2)CN(S(=O)(=O)NCC(F)(F)F)C1 [Example 40, 3-(3-amino-4-(7H-pyrrolo[2,3-d]pyrimidin-4-yl)-1H-pyrazol-1-yl)-3-(cyanomethyl)-N-(2,2,2-trifluoroethyl)azetidine-1l-sulfonamide] |
| < 5 | 826 | < 5 | C[C@@H](N)CS(=O)(=O)N1CC(CC#N)(n2cc(-c3ncnc4[nH]ccc34)c(N)n2)C1 [Example 88, (R)-2-(3-(3-amino-4-(7H-pyrrolo[2,3-d]pyrimidin-4-yl)-1H-pyrazol-1-yl)-1-((2-aminopropyl)sulfonyl)azetidine-3-yl)acetonitrile trifluoroacetate salt] |
| < 50 | 1590 | < 50 | CN=S(C)(=O)N1CC(CC#N)(n2cc(-c3ncnc4[nH]ccc34)c(N)n2)C1 (stereo not shown) [Example 37, 2-(3-(3-amino-4-(7H-pyrrolo[2,3-d]pyrimidin-4-yl)-1H-pyrazol-1-yl)-1-(N,S-dimethylsulfonylimino)azetidine-3-yl)acetonitrile] |
| < 5 | 4110 | < 5 | N#CCNC(=O)N1CC(CC#N)(n2cc(-c3ncnc4[nH]ccc34)c(N)n2)C1 [Example 18, 3-(3-amino-4-(7H-pyrrolo[2,3-d]pyrimidin-4-yl)-1H-pyrazol-1-yl)-N,3-bis(cyanomethyl)azetidine-1-formamide] |
| < 10 | 98 | < 10 | N#CCNS(=O)(=O)N1CC(CC#N)(n2cc(-c3ncnc4[nH]ccc34)c(N)n2)C1 [Example 50, 3-(3-amino-4-(7H-pyrrolo[2,3-d]pyrimidin-4-yl)-1H-pyrazol-1-yl)-N,3-bis(cyanomethyl)azetidine-1-sulfonamide] |
| < 5 | 11 | < 5 | N#CCC1(n2cc(-c3ncnc4[nH]ccc34)c(N)n2)CN(S(=O)(=O)C(F)(F)F)C1 [Example 2, 2-(3-(3-amino-4-(7H-pyrrolo[2,3-d]pyrimidin-4-yl)-1H-pyrazol-1-yl)-1-((trifluoromethyl)sulfonyl)azetidine-3-yl)acetonitrile] |
| < 5 | 579 | < 5 | N#CCC1(n2cc(-c3ncnc4[nH]ccc34)c(N)n2)CN(S(N)(=O)=O)C1 [Example 45, 3-(3-amino-4-(7H-pyrrolo[2,3-d]pyrimidin-4-yl)-1H-pyrazol-1-yl)-3-(cyanomethyl)azetidine-1-sulfonamide] |
| < 10 | 5010 | < 10 | N#CCC1(n2cc(-c3ncnc4[nH]ccc34)c(N)n2)CN(S(=O)(=O)CC(F)(F)F)C1 [Example 1, 2-(3-(3-amino-4-(7-H-pyrrolo[2,3-d]pyrimidin-4-yl)-1H-pyrazol-1-yl)-1-((2,2,2-trifluoroethyl)sulfonyl)azetidine-3-yl)acetonitrile] |
| < 5 | 381 | < 5 | N#CCC1(n2cc(-c3ncnc4[nH]ccc34)c(N)n2)CN(C(=O)[C@H]2C[C@@H]2F)C1 [Example 31, 2-(3-(3-amino-4-(7H-pyrrolo[2,3-d]pyrimidin-4-yl)-1H-pyrazol-1-yl)-1-((1R, 2S)-2-fluorocyclopropane-1-carbonyl)azetidine-3-yl)acetonitrile] |
| < 5 | 152 | < 5 | CS(=O)(=O)CS(=O)(=O)N1CC(CC#N)(n2cc(-c3ncnc4[nH]ccc34)c(N)n2)C1 [Example 8] |
